# Laboratory results reported in publication PMC12775124, “CUL4A-DDB1-DCAF10 is an N-recognin for N-terminally acetylated Src kinases” (Nature Communications, 2026).
# Tests used:
# [1] = tested on: CUL4A-DDB1-DCAF10; assay: In vitro ubiquitination of Lyn-GFP variants by CUL4A-DDB1-DCAF10; type: biochemical, human; settings: for Increase of in vitro ubiquitination under NMT1/2 siRNA: WT E3 complex, IP from NMT1/2 siRNA vs control DLD-1 cells
# Source text: Lyn^WT-GFP was ubiquitinated by the WT E3 complex in both conditions; however, unlike in vitro ubiquitination with endogenous Lyn (Fig. 5c, d), ubiquitination increased ~6-fold under NMT1/2 siRNA conditions. This is consistent with DCAF10 being limiting and overexpressed Lyn-GFP, accumulating an acetylated fraction available for DCAF10 in vitro. Then, we performed IPs for all Nt variants under NMT1/2 siRNA conditions (Fig. 6d, h–i). […] In vitro ubiquitination assays using untreated cell lysates led to similar results (Supplementary Fig. 7h, i).
# Reactions contained E1, UBCH5B (E2), ubiquitin, Mg-ATP in ligation buffer and were incubated with bead-bound substrates, followed by washing and immunoblot detection of ubiquitinated species (anti-ubiquitin), with loading controls (anti-Lyn, -Fyn, -Src or -GFP) (n = 3 independent enzymatic assays). Complete reagent lists, complex preparation, substrate IP conditions, wash buffers, and gel/blot parameters are provided in the Supplementary Methods and Tables.
# 357 (v/v) glycerol, 2 mM TCEP, supplemented with Protease Inhibitor Cocktail), and lysed
# 358 by sonication. Lysates were cleared by centrifugation at 28,000 rpm for 45 min at 4 °C
# 359 using a JA-30.50 rotor (Beckman Coulter, Brea, CA, USA). The cleared and filtered (0.8
# 360 µm) lysate was applied to 1 mL of Strep-Tactin®XT 4Flow® resin (iba), pre-equilibrated
# 361 once with wash buffer (100 mM Tris-HCl pH 8.0, 150 mM NaCl, 1 mM EDTA) and lysis
# 362 buffer. The lysate was incubated on a tube roller for 16 h at 4 °C. After incubation, beads
# 363 were washed with 50 mL of lysis buffer. Bound proteins were eluted with 10 mL of lysis
# 364 buffer supplemented with 50 mM biotin, after 15 min incubation on a tube roller at 4 °C.
# 366 Superdex 200 10/300 or 16/60 SEC column (GE Healthcare, Chicago, IL, USA),
# 367 preequilibrated in SEC buffer (250 mM Tris pH 7.5, 250 mM NaCl, 10% (v/v) glycerol,
# 370 Purified proteins were visualized during and after the purification by SDS-gels containing
# 371 TCE (2,2,2-trichloroethanol)62. The identity of proteins was confirmed by WB and MS.
# 373 In vitro ubiquitination assays
# 374 The in vitro ubiquitination assays were performed as previously described8. In brief,
# 375 E1 (50 nM), UBCH5B (250 nM), ubiquitin (1.5 µg), Mg-ATP (3 mM), ligation buffer,
# 376 and water were pre-mixed. The premix was divided, and either CUL4A-RBX1-
# 378 RBX1DDB1 (-DCAF10) (250 nM each) was added. 15 μL of each premix were incubated
# 379 with substrates (endogenous Lyn or Lyn-GFP constructs) bound to beads for 1 h at 30°C
# 380 with shaking. Samples were then washed four to five times with a buffer containing 50 […]
# 382 EDTA, and loaded on a gradient gel (4–15%). Ubiquitination of substrates was assessed
# 383 by WB using an anti-ubiquitin antibody. Equal substrate loading was evaluated by anti- […]
# [2] = tested on: DLD-1 Lyn KO Flp-In T-REx cells; assay: Direct ubiquitin blot of Lyn-GFP immunoprecipitates; type: cell-based, human; settings: anti-GFP IP, anti-Ub blot, n = 3
# Method: Fig. 6 N-terminal glycine mutation abolishes DCAF10-dependent stability and ubiquitination. a DLD-1 Flp-In T-REx cells and Lyn KO cells expressing Lyn^WT-GFP, Lyn^G2A-GFP, or Lyn^G2P-GFP were induced for 24 h with 100 ng/mL doxycycline. Cells were treated with NMT1/2 siRNA, DCAF10 siRNA, or both (or left untreated) for 72 h. Representative WBs are shown. Filled circles represent siRNA treatment, empty circles untreated. b WB quantifications of Lyn levels normalized to vinculin. Purple: untreated with NMT1/2 siRNA; blue: treated with NMT1/2 siRNA. Mean ± s.d. with individual data points are shown (n = 3 independent biological replicates). c Schematic of ubiquitination experiments. Created in BioRender. […] Lysates have been treated with NMT1/2 RNAi for 72 h. i Quantification of in vitro ubiquitination assays. Mean ± s.d. with individual data points are shown (n = 3 independent ubiquitination assays). Volcano plots of Lyn-GFP^WT binding partners: j NMT1/2 siRNA ± doxycycline (Dox); k Control ± doxycycline; l NMT1/2 siRNA vs. control both with doxycycline. The −log10 adjusted p-value (two-sided Student’s t test with permutation-based multiple-testing correction; y-axis) is plotted against the log2 fold change (x-axis). […]
# We next assessed the role of the Lyn Nt-residue for ubiquitination by performing two complementary experimental set-ups (Fig. 6c). […]
substance,measurement,setting,value
Lyn^WT-GFP: doxycycline-inducible C-terminally GFP-fused Lyn in DLD-1 Lyn KO cells,In vitro ubiquitination (in words),"[1]; Lyn-GFP variants, NMT1/2 siRNA",robustly ubiquitinated by the WT E3 complex
same,Increase of in vitro ubiquitination under NMT1/2 siRNA,[1],~ 6 fold
same,Increase of in vitro ubiquitination under NMT1/2 siRNA,[1]; listed as LynWT–GFP,> 5 fold
same,Ubiquitination in cells (in words),[2],"ubiquitinated under both conditions, with a stronger signal in controls"
